The source made the active and inactive calls. No rule for the calls is given here.
Assay: inhibitor activity on non-replicating M. tuberculosis, dose response, plate reader, dry powder (AID 743175)
Conditions: Mycobacterium tuberculosis non-replicating, growth inhibition plate reader

| Compound | activity change, negative = inhibition (at 26 µM (top of the series)) | also measured |
| --- | --- | --- |
| COCCNC(=O)C[C@@H]1C[C@H]2c3cc(NC(=O)Nc4ccc(C(F)(F)F)cc4)ccc3O[C@H]2[C@@H](CO)O1 | 2.69% (inactive) | – |
| O=C(C[C@@H]1C=C[C@H](NC(=O)Nc2cc(F)ccc2F)[C@@H](CO)O1)NCc1ccc2c(c1)OCO2 | -6.79% (inactive) | – |
| CNC[C@H]1OCCCC[C@@H](C)Oc2ccc(NC(=O)CCCN(C)C)cc2C(=O)N([C@H](C)CO)C[C@@H]1C | – | activity change, negative = inhibition (at 23.5 µM (top of the series)): 0.469% (inactive) |
| COCCNC(=O)C[C@@H]1C[C@@H]2c3cc(NC(=O)Nc4ccc(C(F)(F)F)cc4)ccc3O[C@@H]2[C@H](CO)O1 | – | activity change, negative = inhibition (at 23.5 µM (top of the series)): 6.32% (inactive) |
| C[C@H](C(=O)N(C)C[C@@H]1OCc2ccccc2-c2ccccc2C(=O)N([C@H](C)CO)C[C@H]1C)c1ccccc1 | – | activity change, negative = inhibition (at 23.5 µM (top of the series)): -2.02% (inactive) |
| Cc1noc(C)c1NC(=O)Nc1ccc2c(c1)C(=O)N(C)[C@@H]1CC[C@@H](CC(=O)NCc3ccc(Cl)cc3)O[C@H]1CO2 | – | activity change, negative = inhibition (at 23.5 µM (top of the series)): -4.47% (inactive) |
| Cc1noc(C)c1NC(=O)Nc1ccc2c(c1)C(=O)N(C)[C@H]1CC[C@@H](CC(=O)NCc3ccc(Cl)cc3)O[C@H]1CO2 | 0.473% (inactive) | – |
| Cc1noc(C)c1NC(=O)Nc1ccc2c(c1)C(=O)N(C)[C@@H]1CC[C@H](CC(=O)NCc3ccc(Cl)cc3)O[C@H]1CO2 | – | activity change, negative = inhibition (at 23.5 µM (top of the series)): -0.708% (inactive) |
| C[C@@H](C(=O)N(C)C[C@H]1OCc2ccccc2-c2ccccc2C(=O)N([C@@H](C)CO)C[C@@H]1C)c1ccccc1 | -10.5% (inactive) | – |
| Cc1noc(C)c1NC(=O)Nc1ccc2c(c1)C(=O)N(C)[C@H]1CC[C@H](CC(=O)NCc3ccc(Cl)cc3)O[C@@H]1CO2 | -8.85% (inactive) | – |
| COCCNC(=O)C[C@@H]1C[C@H]2c3cc(NC(=O)Nc4ccc(C(F)(F)F)cc4)ccc3O[C@H]2[C@H](CO)O1 | -6% (inactive) | – |
| CNC[C@@H]1OCCCC[C@@H](C)Oc2ccc(NC(=O)CCCN(C)C)cc2C(=O)N([C@H](C)CO)C[C@H]1C | -0.491% (inactive) | – |
| Fc1ccc(-c2ccc(CNCc3ccccn3)o2)cc1Cl | – | activity change, negative = inhibition (at 38 µM (top of the series)): -52% (inactive) |
| O=C(C[C@H]1C[C@H]2c3cc(NC(=O)c4cccnc4)ccc3O[C@H]2[C@@H](CO)O1)NCC(F)(F)F | 4.47% (inactive) | – |
| CNC[C@@H]1OCCCC[C@@H](C)Oc2ccc(NC(=O)CCCN(C)C)cc2C(=O)N([C@H](C)CO)C[C@@H]1C | -5.36% (inactive) | – |
| O=C(C[C@@H]1C=C[C@@H](NC(=O)Nc2cc(F)ccc2F)[C@H](CO)O1)NCc1ccc2c(c1)OCO2 | -1.51% (inactive) | – |
| Cc1noc(C)c1NC(=O)Nc1ccc2c(c1)C(=O)N(C)[C@@H]1CC[C@H](CC(=O)NCc3ccc(Cl)cc3)O[C@@H]1CO2 | -6.75% (inactive) | – |
| O=C(C[C@H]1C[C@@H]2c3cc(NC(=O)c4cccnc4)ccc3O[C@@H]2[C@@H](CO)O1)NCC(F)(F)F | 2.49% (inactive) | – |
| Cc1noc(C)c1NC(=O)Nc1ccc2c(c1)C(=O)N(C)[C@@H]1CC[C@@H](CC(=O)NCc3ccc(Cl)cc3)O[C@@H]1CO2 | -1.24% (inactive) | – |
| CNC[C@H]1OCCCC[C@H](C)Oc2ccc(NC(=O)CCCN(C)C)cc2C(=O)N([C@H](C)CO)C[C@@H]1C | 0.293% (inactive) | – |
| C=CCn1c(NC(=O)c2ccccc2)nc2ccccc21 | – | activity change, negative = inhibition (at 38 µM (top of the series)): -76.7% (inactive) |
| COCCNC(=O)C[C@H]1C[C@@H]2c3cc(NC(=O)Nc4ccc(C(F)(F)F)cc4)ccc3O[C@@H]2[C@@H](CO)O1 | -5.53% (inactive) | – |
| O=C(C[C@@H]1C[C@H]2c3cc(NC(=O)c4cccnc4)ccc3O[C@H]2[C@H](CO)O1)NCC(F)(F)F | 4.14% (inactive) | – |
| C[C@@H]1CN([C@H](C)CO)C(=O)c2ccccc2-c2ccccc2CO[C@@H]1CN(C)C(=O)[C@H](C)c1ccccc1 | -3.88% (inactive) | – |
| Cc1noc(C)c1NC(=O)Nc1ccc2c(c1)C(=O)N(C)[C@H]1CC[C@@H](CC(=O)NCc3ccc(Cl)cc3)O[C@@H]1CO2 | – | activity change, negative = inhibition (at 23.5 µM (top of the series)): -7.13% (inactive) |

— PubChem BioAssay AID743175 (Broad Institute, 2013)
